# Tested on: panel of cancer cell lines
# Assay: Cell viability (CellTiter-Glo) dose-response across cancer cell line panel;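 for EC50: after 72 h compound incubation with CellTiter-Glo ATP readout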
# Assay type: cell-based, human
# Settings: for EC50: Homo sapiens
# Excerpt: Next, we explored the effect of CSN5 inhibition on the viability of cancer cells. To obtain a comprehensive picture, we generated dose–response curves with a CSN5 inhibitor across more than 500 cancer cell lines in a previously described standardized setting[47] (Supplementary Data 1).
# A standardized CellTiter-Glo Assay (Promega #G7570) based on the quantification of ATP was applied according to the manufacturer's protocol to measure the amount of viable cells in culture. In brief, cells were seeded into 384-well plates at optimal density for each cell line. After 4 h, compounds were added at different concentrations in growth medium and incubated for another 72 h in a humidifying chamber at 37 °C and 5% CO2. […] EC50 values were calculated from the plot of percentage of inhibition versus inhibitor concentration using the nonlinear regression analysis software Origin 7.5SR6 (OriginLab Corp.).
compound,measurement,setting,value
CC(C)C[C@H](NC(=O)[C@H](Cc1ccccc1)NC(=O)c1cnccn1)B(O)O [Bortezomib],EC50,"SR-786, SR-786",2.21 nM
same,EC50,"ST486, ST486",6.31 nM
same,EC50,"SU-DHL10, SU-DHL-10",14.5 nM
same,EC50,"SU-DHL-4, SU-DHL-4",3.28 nM
same,EC50,"SU-DHL-8, SU-DHL-8",3.8 nM
same,EC50,"SUM52, cell line SUM-52",5.48 nM
same,EC50,SUM52PE,6.21 nM
same,EC50,"SUP-M2, SUP-M2",3.28 nM
same,EC50,"SW480, SW480",7.08 nM
same,EC50,"SW837, SW837",5.87 nM
same,EC50,"SW948, SW948",7.28 nM
same,EC50,"SW1088, SW 1088",5.94 nM
same,EC50,"SW1271, cell line SW 1271",21.5 nM
same,EC50,"SW1353, SW 1353",39.3 nM
same,EC50,"SW1417, SW1417",6.52 nM
same,EC50,"SW1573, SW 1573",20.5 nM
same,EC50,"SW1783, SW 1783",16.4 nM
same,EC50,"SW1990, SW 1990",8.71 nM
same,EC50,"SW-620, SW620",7.95 nM
same,EC50,"T47D, T-47D",10.4 nM
same,EC50,"T84, T84",12.1 nM
same,EC50,T98G,9.62 nM
same,EC50,"T-24, T24",9.77 nM
same,EC50,"TC-71, TC-71",11.4 nM
same,EC50,TE-4,5.89 nM
same,EC50,"TE-6, TE-6",43.9 nM
same,EC50,"TE-10, TE-10",11.2 nM
same,EC50,"TE-11, cell line TE-11",28.9 nM
same,EC50,"TE-15, cell line TE-15",16.7 nM
same,EC50,TEN,9.94 nM
same,EC50,"TF-1, TF-1",1.67 nM
same,EC50,"THP-1, THP-1",6.6 nM
same,EC50,"TOV21G, cell line TOV-21G",4.25 nM
same,EC50,"TOV112D, TOV-112D",28.7 nM
same,EC50,TT2609-C02,19.3 nM
same,EC50,U266B1,3.37 nM
same,EC50,"U-118-MG, U-118 MG",7.81 nM
same,EC50,"U-251, U-251 MG",6.91 nM
same,EC50,"U-937, U-937",5.81 nM
same,EC50,"UACC-62, UACC-62",19.5 nM
same,EC50,"UACC-257, UACC-257",10.9 nM
same,EC50,"UMUC3, UM-UC-3",15.1 nM
same,EC50,"VM-CUB-1, VM-CUB1",10.1 nM
same,EC50,VMRC-RCW,5.3 nM
same,EC50,"WM 266-4, WM-266-4",24.4 nM
same,EC50,"WM793, WM-793",15.5 nM
same,EC50,"WM983B, WM-983B",8.77 nM
same,EC50,WM-88,7.78 nM
same,EC50,"WM-115, WM-115",6.28 nM
same,EC50,"WM-1799, WM1799",7.42 nM
same,EC50,"WSUDLCL2, WSU-DLCL2",4.13 nM
same,EC50,YAPC,22.7 nM
same,EC50,"YKG-1, YKG1",7.27 nM
same,EC50,YMB-1,16.2 nM
same,EC50,"Z-138, cell line Z-138",5.73 nM
same,EC50,"ZR-75-1, ZR-75-1",21.1 nM
same,EC50,"ZR-75-30, ZR-75-30",10.2 nM
same,EC50,cell line AGS,9.36 nM
same,EC50,cell line BDCM,7.98 nM
same,EC50,cell line EB1,6.47 nM
same,EC50,cell line EB2,6.46 nM
same,EC50,cell line GCT,19 nM
same,EC50,cell line GI-1,8.94 nM
same,EC50,cell line H4,11.5 nM
same,EC50,cell line HH,3.05 nM
same,EC50,cell line HuG1-N,1.83 nM
same,EC50,cell line JHH-5,17 nM
same,EC50,cell line KS-1,10.1 nM
same,EC50,cell line KURAMOCHI,30.9 nM
same,EC50,cell line LC-1/sq-SF,18.8 nM
same,EC50,cell line LP-6,10.3 nM
same,EC50,cell line MEL-HO,5.3 nM
same,EC50,cell line MJ,2.8 nM
same,EC50,cell line MOG-G-UVW,19.9 nM
same,EC50,cell line Mel285,8.2 nM
same,EC50,cell line NCI-H2330,32.2 nM
same,EC50,cell line OMM2.3,12.1 nM
same,EC50,cell line OMM2.5,21.7 nM
same,EC50,cell line PC-3,14.3 nM
same,EC50,cell line RERF-LC-MS,41.7 nM
same,EC50,cell line RKO,8.53 nM
same,EC50,cell line RL,3.25 nM
same,EC50,cell line T778,18.6 nM
same,EC50,cell line TE 617.T,6.87 nM
same,EC50,cell line TE-1,15.6 nM
same,EC50,cell line TE-5,7.97 nM
same,EC50,cell line VMRC-RCZ,8.46 nM
same,EC50,cell line WS1,17.6 nM
same,AMAX,Hs 611.T,-95.5359
same,AMAX,Hs 729,-96.5684
same,AMAX,Hs 936.T,-95.7878
same,AMAX,Hs 940.T,-97.1382
same,AMAX,IGR-1,-97.3166
same,AMAX,JHOM-1,-95.2005
same,AMAX,JVM-3,-96.4391
same,AMAX,KARPAS-620,-98.4285
same,AMAX,KCL-22,-97.2427
same,AMAX,KHM-1B,-96.7668
same,AMAX,KLE,-91.799
same,AMAX,KMS-28BM,-96.7467
same,AMAX,KO52,-96.777
same,AMAX,KU812,-97.0553
same,AMAX,KYM-1,-96.8984
same,AMAX,KYO-1,-96.2465
same,AMAX,Ki-JK,-96.7338
same,AMAX,L-363,-96.7867
same,AMAX,LAMA-84,-97.7452
same,AMAX,LCLC-97TM1,-96.2648
same,AMAX,LCLC-103H,-95.0382
same,AMAX,LMSU,-95.8427
same,AMAX,LU99,-96.2849
same,AMAX,LXF-289,-97.2241
same,AMAX,Li-7,-96.9283
same,AMAX,MB 157,-95.9545
same,AMAX,MHH-NB-11,-96.8993
same,AMAX,MOLM-16,-96.6028
same,AMAX,MOLP-8,-96.4824
same,AMAX,MONO-MAC-1,-98.0152
same,AMAX,MONO-MAC-6,-96.8971
same,AMAX,NCI-H28,-96.1421
same,AMAX,NCI-H841,-95.8407
same,AMAX,NCI-H1184,-95.7721
same,AMAX,NCI-H1341,-97.2357
same,AMAX,NCI-H1869,-96.9482
same,AMAX,NCI-H2073,-96.9774
same,AMAX,NOMO-1,-95.3675
same,AMAX,OC 316,-96.5256
same,AMAX,OCI-AML2,-96.7921
same,AMAX,OCI-AML3,-95.7952
same,AMAX,OCI-AML5,-97.923
same,AMAX,OCI-M1,-95.2925
same,AMAX,ONCO-DG-1,-96.4992
same,AMAX,OS-RC-2,-96.3701
same,AMAX,OUMS-23,-95.8674
same,AMAX,OV7,-92.7444
same,AMAX,P31/FUJ,-96.7178
same,AMAX,PA-TU-8988S,-97.262
same,AMAX,PE/CA-PJ41 (clone D2),-95.4895
same,AMAX,RI-1,-96.2187
same,AMAX,RMUG-S,-96.7615
same,AMAX,RVH-421,-95.9743
same,AMAX,SF126,-95.9565
same,AMAX,SK-N-SH,-96.5195
same,AMAX,SNU-216,-96.337
same,AMAX,SW620,-96.6127
same,AMAX,SW837,-95.7546
same,AMAX,SW948,-95.7047
same,AMAX,SW 1783,-94.9618
same,AMAX,T84,-98.3103
same,AMAX,T98G,-96.5841
same,AMAX,T-47D,-97.6577
same,AMAX,THP-1,-96.3023
same,AMAX,U-118 MG,-95.817
same,AMAX,UACC-257,-95.0265
same,AMAX,VMRC-RCW,-96.9199
same,AMAX,YMB-1,-91.0668
same,Amax (high-concentration effect level),"across all cell lines of the panel, 72 h",−95% to −100
same,AMAX,all cell lines of a selection from the panel (Fig. 3b),≤ −95%

# — article PMC5078989, “Targeted inhibition of the COP9 signalosome for treatment of cancer” (Nature Communications, 2016)
